Literature values in patent US20150252306A1, “COMPOSITIONS COMPRISING A PUNGENT AGENT” (The Procter & Gamble Company, priority 2014, published 2015).

Settings: Scoville heat units, given for comparison

COc1cc(CNC(=O)CCCC/C=C/C(C)C)ccc1O [capsaicin]
pungency level: about 16 000 000 SHU
